Each block holds one molecule with its values, some of them ahead of it. No end group written: not given here.
Target: T1, human TAS1R2-R317G/TAS1R3-WT (Homo sapiens, UniProt Q7RTX0+Q8TE23, R317G)
T1 construct: expressed in transfected cells; host or cells: HEK293T-Gα16gust44
T1 sequence (Q8TE23 20-839 R317G): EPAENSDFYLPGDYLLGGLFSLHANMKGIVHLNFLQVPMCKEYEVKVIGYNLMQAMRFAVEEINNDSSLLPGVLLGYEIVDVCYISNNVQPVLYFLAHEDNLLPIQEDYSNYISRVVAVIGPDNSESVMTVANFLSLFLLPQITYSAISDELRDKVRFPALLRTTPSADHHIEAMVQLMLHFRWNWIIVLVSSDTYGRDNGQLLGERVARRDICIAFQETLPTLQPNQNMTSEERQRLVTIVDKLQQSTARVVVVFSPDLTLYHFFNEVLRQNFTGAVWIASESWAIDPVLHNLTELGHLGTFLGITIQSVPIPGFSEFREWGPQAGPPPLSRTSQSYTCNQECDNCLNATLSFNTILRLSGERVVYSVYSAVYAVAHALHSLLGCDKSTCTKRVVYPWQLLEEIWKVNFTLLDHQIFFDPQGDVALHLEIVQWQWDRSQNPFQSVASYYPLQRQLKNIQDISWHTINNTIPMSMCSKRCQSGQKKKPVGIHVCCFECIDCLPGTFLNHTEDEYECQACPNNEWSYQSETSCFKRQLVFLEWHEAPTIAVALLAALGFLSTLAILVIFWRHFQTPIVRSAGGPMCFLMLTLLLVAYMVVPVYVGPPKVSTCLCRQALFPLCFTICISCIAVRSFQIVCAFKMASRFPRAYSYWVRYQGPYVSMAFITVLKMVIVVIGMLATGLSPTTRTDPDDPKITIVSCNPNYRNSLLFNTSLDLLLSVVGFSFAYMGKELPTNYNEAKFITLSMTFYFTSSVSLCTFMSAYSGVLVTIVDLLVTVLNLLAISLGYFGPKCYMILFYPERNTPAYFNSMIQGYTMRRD
T1 sequence (Q7RTX0 21-852): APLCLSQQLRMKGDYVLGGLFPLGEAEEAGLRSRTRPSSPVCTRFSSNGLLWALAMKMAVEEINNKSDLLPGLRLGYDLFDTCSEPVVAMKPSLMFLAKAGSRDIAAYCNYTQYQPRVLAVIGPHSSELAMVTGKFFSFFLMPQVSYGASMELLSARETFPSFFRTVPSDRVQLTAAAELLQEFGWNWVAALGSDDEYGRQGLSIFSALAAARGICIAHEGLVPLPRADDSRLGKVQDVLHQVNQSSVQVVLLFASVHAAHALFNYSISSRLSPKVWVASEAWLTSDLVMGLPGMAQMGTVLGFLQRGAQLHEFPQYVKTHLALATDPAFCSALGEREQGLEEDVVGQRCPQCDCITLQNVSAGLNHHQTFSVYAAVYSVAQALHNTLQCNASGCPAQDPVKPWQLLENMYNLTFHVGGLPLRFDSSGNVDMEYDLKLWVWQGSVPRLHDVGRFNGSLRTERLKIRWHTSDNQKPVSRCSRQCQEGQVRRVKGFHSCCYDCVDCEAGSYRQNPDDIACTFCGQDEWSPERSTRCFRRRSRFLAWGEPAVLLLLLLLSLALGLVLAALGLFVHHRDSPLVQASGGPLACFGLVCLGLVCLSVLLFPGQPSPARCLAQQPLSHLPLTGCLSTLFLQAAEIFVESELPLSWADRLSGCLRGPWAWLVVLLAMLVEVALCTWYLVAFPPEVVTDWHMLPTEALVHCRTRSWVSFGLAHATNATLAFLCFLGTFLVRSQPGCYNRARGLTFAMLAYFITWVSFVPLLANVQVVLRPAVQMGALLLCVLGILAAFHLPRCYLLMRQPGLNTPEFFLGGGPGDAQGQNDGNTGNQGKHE
Assay: Calcium mobilisation assay, TAS1R2 variant R317G with TAS1R3-WT
Type: cell-based
Conditions: for Max ΔF/F0: maximal signal amplitude
Excerpt: The coding sequences for TAS1R2 and TAS1R3 were commercially synthesised, and the human codon was optimised for expression in human cells. The coding sequences of human TAS1R2 and TAS1R3 were subcloned and inserted into the mammalian expression vectors pcDNA6/myc-HisA and pcDNA4/myc-HisA (Invitrogen; Thermo Fisher Scientific; Illkirch, France) between the EcoRI and NotI restriction sites, generating the plasmids pcDNA6-TAS1R2 and pcDNA4-TAS1R3, respectively. To increase protein expression in mammalian cells, an upstream start codon was used, which was a sequence called MAX, corresponding to the QBI SP163 element also described in pcDNA4-HisMax (Invitrogen; Thermo Fisher Scientific; Illkirch, France). To measure the expression level of the receptor by immunohistochemistry, we used the FLAG sequence ([…]) in the C-terminal position, which encodes the FLAG tag epitope. SNP variants of TAS1R2 and TAS1R3 were constructed based on […], respectively, using site-directed mutagenesis (Genewiz; Leipzig, Germany).
The HEK293T cells were kindly provided by Jay P. Slack (Givaudan Flavors Corporation; Cincinnati, OH, USA). HEK293T cells stably transfected with Gα16gust44 [43, 67] were seeded in poly-D-lysine-coated clear-bottom black 96-well plates (0.35 × 10^5 cells/well) in high-glucose DMEM supplemented with 2 mM GlutaMAX, 10% dialysed foetal bovine serum with penicillin/streptomycin and G418 (400 μg/mL) at 37 °C and 6.3% CO2 in a humidified atmosphere as previously reported. […] As a negative control, HEK293T cells were mock-transfected with the empty expression vector. After a further 24 h of incubation, the HEK293T cells were washed with C1 buffer (130 mM NaCl, 5 mM KCl, 10 mM HEPES pH 7.4 and 2 mM CaCl2). The 96-well plates containing the cells were then stimulated with sweet-tasting compounds. […] Different concentration ranges were tested depending on the sweet compound injected. The Ca^2+ changes were expressed as fractional changes in fluorescent light intensity: ΔF/F = (F − F0)/F0, where F was the fluorescent light intensity at each point, and F0 was the value of emitted fluorescent light prior to stimulus application. To calculate dose–response relationships, the changes in fluorescence upon stimulus application were averaged, mock-subtracted and baseline-corrected. The dose–response data obtained were adjusted using a 4-parameter logistic equation. The half-maximal effective concentrations (EC50 values) and maximal signal amplitudes were calculated using SigmaPlot software (version 15.0) (Systat Software; San Jose, CA, USA).
For in vitro calcium mobilisation assay performed on hTAS1R2-SNPs, hTAS1R3-SNPs and mTAS1R3-I60T, 6 to 7 concentrations were tested for each sweet compound, plus buffer alone. All concentration–receptor combinations were measured in duplicate, and each experiment was repeated at least 4 times (8 wells/concentration). Results were expressed for each concentration as ΔF/F mean ± SEM and represented as dose–response curves.

EC50: 465 ± 55 µM
R1 = Variant EC50/WT EC50: 0.7
Max ΔF/F0: 0.46 ± 0.02
Molecule: CC1=CC(=O)NS(=O)(=O)O1 [Acesulfame K, acesulfame K]

Molecule: O=S(=O)(O)NC1CCCCC1 [Cyclamate, cyclamate]
EC50: 2160 ± 44 µM

Molecule: C[C@H](CC[C@@H](O[C@@H]1O[C@H](CO[C@@H]2O[C@H](CO)[C@@H](O)[C@H](O)[C@H]2O)[C@@H](O)[C@H](O)[C@H]1O[C@@H]1O[C@H](CO)[C@@H](O)[C@H](O)[C@H]1O)C(C)(C)O)[C@H]1CC[C@@]2(C)[C@@H]3CC=C4[C@@H](CC[C@H](O[C@@H]5O[C@H](CO[C@@H]6O[C@H](CO)[C@@H](O)[C@H](O)[C@H]6O)[C@@H](O)[C@H](O)[C@H]5O)C4(C)C)[C@]3(C)[C@H](O)C[C@]12C [Mogroside V, mogroside V]
EC50: 18.4 ± 1 µM
R1 = Variant EC50/WT EC50: 1.1
Max ΔF/F0: 1.34 ± 0.03

EC50: 97.1 ± 5 µM
R1 = Variant EC50/WT EC50: 1.3
Max ΔF/F0: 0.85 ± 0.02
Molecule: COc1ccc(CCC(=O)c2c(O)cc(O[C@@H]3O[C@H](CO)[C@@H](O)[C@H](O)[C@H]3O[C@@H]3O[C@@H](C)[C@H](O)[C@@H](O)[C@H]3O)cc2O)cc1O [NHDC, neohesperidin dihydrochalcone]

EC50: 0.73 ± 0.13 µM
R1 = Variant EC50/WT EC50: 0.9
Max ΔF/F0: 0.56 ± 0.03
Molecule: COC(=O)[C@H](Cc1ccccc1)NC(=O)[C@H](CC(=O)O)NCCC(C)(C)C [Neotame]

EC50: 20.7 ± 0.6 µM
R1 = Variant EC50/WT EC50: 1.2
Max ΔF/F0: 1.53 ± 0.03
Molecule: C=C(C)[C@@H]1CC=C(/C=N/O)CC1 [Perillartine, perillartine]

EC50: 20.4 ± 0.4 µM
R1 = Variant EC50/WT EC50: 1.2
Max ΔF/F0: 1.23 ± 0.01
Molecule: C=C1C[C@@]23CC[C@H]4[C@@](C)(CCC[C@@]4(C)C(=O)O[C@@H]4O[C@H](CO)[C@@H](O)[C@H](O[C@@H]5O[C@H](CO)[C@@H](O)[C@H](O)[C@H]5O)[C@H]4O[C@@H]4O[C@H](CO)[C@@H](O)[C@H](O)[C@H]4O)[C@@H]2CC[C@]1(O[C@@H]1O[C@H](CO)[C@@H](O)[C@H](O[C@@H]2O[C@H](CO)[C@@H](O)[C@H](O)[C@H]2O)[C@H]1O[C@@H]1O[C@H](CO)[C@@H](O)[C@H](O)[C@H]1O)C3 [Rebaudioside M, rebaudioside M]

EC50: 62 ± 11 µM
R1 = Variant EC50/WT EC50: 0.7
Max ΔF/F0: 0.80 ± 0.05
Molecule: OC[C@H]1O[C@H](O[C@]2(CCl)O[C@H](CCl)[C@@H](O)[C@@H]2O)[C@H](O)[C@@H](O)[C@H]1Cl [Sucralose]

R1 = Variant EC50/WT EC50: 1.3
Max ΔF/F0: 1.18 ± 0.03
Molecule: brazzein (QDKCKKVYENYPVSKCQLANQCNYDCKLDKHARSGECFYDEKRNLQCICDYCEY; ends and bridges not checked; cysteine pairing not given here; UniProt P56552 1-54, looked up) [sweet-tasting protein obtained by recombinant production using the yeast Pichia pastoris]

R1 = Variant EC50/WT EC50: 1.4
Max ΔF/F0: 1.16 ± 0.02
Molecule: thaumatin

EC50: 10.9 ± 0.3 µM
B1: thaumatin (protein)
chain: ATFEIVNRCSYTVWAAASKGDAALDAGGRQLNSGESWTINVEPGTKGGKIWARTDCYFDDSGSGICKTGDCGGLLRCKRFGRPPTTLAEFSLNQYGKDYIDISNIKGFNVPMDFSPTTRGCRGVRCAADIVGQCPAKLKAPGGGCNDACTVFQTSEYCCTTGKCGPTEYSRFFKRLCPDAFSYVLDKPTTVTCPGSSNYRVTFCPTA
modifications: Eight disulfides
notes: sweet-tasting plant protein, E957
